Assay [1] deals with Estrogen receptor (Rattus norvegicus) (UniProt P06211+Q62986). The assay is described as follows: Binding affinity for estrogen receptor in rat (n=3).
In assay [2] the target is T1, Androgen receptor (Rattus norvegicus) (UniProt P15207).
T1 sequence (whole entry): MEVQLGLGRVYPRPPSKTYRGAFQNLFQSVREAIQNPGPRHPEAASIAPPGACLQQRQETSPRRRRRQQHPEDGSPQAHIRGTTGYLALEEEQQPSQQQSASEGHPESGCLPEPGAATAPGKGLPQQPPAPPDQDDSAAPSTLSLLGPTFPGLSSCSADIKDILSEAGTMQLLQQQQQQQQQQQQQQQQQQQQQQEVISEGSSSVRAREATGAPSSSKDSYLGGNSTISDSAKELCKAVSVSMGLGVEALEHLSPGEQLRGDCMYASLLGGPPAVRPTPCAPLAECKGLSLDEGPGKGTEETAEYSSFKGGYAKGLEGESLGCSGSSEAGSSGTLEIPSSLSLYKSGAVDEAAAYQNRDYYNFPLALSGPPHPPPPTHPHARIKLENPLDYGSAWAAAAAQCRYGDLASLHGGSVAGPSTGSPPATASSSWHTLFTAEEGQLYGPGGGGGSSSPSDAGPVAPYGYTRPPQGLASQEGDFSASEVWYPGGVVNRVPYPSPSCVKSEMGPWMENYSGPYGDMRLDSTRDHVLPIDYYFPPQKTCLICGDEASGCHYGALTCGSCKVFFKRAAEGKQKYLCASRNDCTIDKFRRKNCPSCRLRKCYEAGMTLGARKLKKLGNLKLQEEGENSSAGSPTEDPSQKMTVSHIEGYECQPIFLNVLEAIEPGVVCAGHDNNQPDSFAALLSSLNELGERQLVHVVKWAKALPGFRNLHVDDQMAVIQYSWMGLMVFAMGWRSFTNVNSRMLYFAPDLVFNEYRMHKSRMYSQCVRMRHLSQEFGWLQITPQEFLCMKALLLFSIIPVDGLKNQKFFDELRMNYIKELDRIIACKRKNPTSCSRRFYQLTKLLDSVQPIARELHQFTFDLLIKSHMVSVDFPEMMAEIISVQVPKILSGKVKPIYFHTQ
The assay is described as follows: Relative binding affinity for rat androgen receptor compared to dihydrotestosterone (100) (n=4).

The record followed here is ChEMBL document CHEMBL1144335, “7alpha,11beta-Dimethyl-19-nortestosterone: a potent and selective androgen response modulator with prostate-sparing properties” (Bioorg Med Chem Lett, 2005).

Each structure is given as a SMILES string.

For the compound `C[C@@H]1CC2=CC(=O)CCC2C2C1C1CC[C@H](O)[C@@]1(C)C[C@@H]2C` (stereo partly drawn), the Binding affinity was found to be 0.6 in assay [1] and 194 in assay [2].

In assay [2], `C[C@H]1C[C@@]2(C)C(CC[C@@H]2O)C2C1C1CCC(=O)C=C1C[C@@H]2C` (stereo partly drawn) registered a Binding affinity of 22.
